Test results as given in PubChem BioAssay (NCI).
Where “and” joins values, the source holds several entries; their conditions need not be identical. Identical values can stand only once.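 Grown in 96-well plates, cells were treated for 48 hours with each compound at five concentrations. Insufficient inhibition: endpoint recorded as highest concentration tested. GI50 is the concentration that inhibits growth by half. TGI: total growth inhibition.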

What was measured:
Experiment in all cases: NCI tumour cell line growth inhibition, 48 h
NCI-H23 lung = tested on: NCI-H23 lung
DMS 114 small cell lung = tested on: DMS 114 small cell lung
DMS 273 small cell lung = tested on: DMS 273 small cell lung
M14 melanoma = tested on: M14 melanoma
XF 498 CNS = tested on: XF 498 CNS
T-47D breast = tested on: T-47D breast
SNB-19 CNS = tested on: SNB-19 CNS
SNB-78 CNS = tested on: SNB-78 CNS
NCI-H522 lung = tested on: NCI-H522 lung
A498 renal = tested on: A498 renal
EKVX NSCLC = tested on: EKVX NSCLC
P388/ADR leukemia = tested on: P388/ADR leukemia
HT29 colon = tested on: HT29 colon
HL-60(TB) leukemia = tested on: HL-60(TB) leukemia
UO-31 renal = tested on: UO-31 renal
SF-268 CNS = tested on: SF-268 CNS
SN12C renal = tested on: SN12C renal
DLD-1 colon = tested on: DLD-1 colon
M19-MEL melanoma = tested on: M19-MEL melanoma
ACHN renal = tested on: ACHN renal
HOP-92 NSCLC = tested on: HOP-92 NSCLC
RPMI-8226 leukemia = tested on: RPMI-8226 leukemia
UACC-62 melanoma = tested on: UACC-62 melanoma
SN12K1 renal = tested on: SN12K1 renal
OVCAR-5 ovarian = tested on: OVCAR-5 ovarian
SR leukemia = tested on: SR leukemia
MALME-3M melanoma = tested on: MALME-3M melanoma
LXFL 529 NSCLC = tested on: LXFL 529 NSCLC
UACC-257 melanoma = tested on: UACC-257 melanoma
NCI/ADR-RES ovarian = tested on: NCI/ADR-RES ovarian
MCF7 breast = tested on: MCF7 breast
DU-145 prostate = tested on: DU-145 prostate
HOP-18 NSCLC = tested on: HOP-18 NSCLC
RXF 393 renal = tested on: RXF 393 renal
MOLT-4 leukemia = tested on: MOLT-4 leukemia
NCI-H226 lung = tested on: NCI-H226 lung
A549 NSCLC = tested on: A549 NSCLC
HCT-15 colon = tested on: HCT-15 colon
NCI-H460 lung = tested on: NCI-H460 lung
U251 CNS = tested on: U251 CNS
CAKI-1 renal = tested on: CAKI-1 renal
MDA-MB-435 = tested on: MDA-MB-435
MDA-N = tested on: MDA-N
SW-620 colon = tested on: SW-620 colon
PC-3 prostate = tested on: PC-3 prostate
LOX IMVI melanoma = tested on: LOX IMVI melanoma
SK-MEL-5 melanoma = tested on: SK-MEL-5 melanoma
P388 leukemia = tested on: P388 leukemia
K-562 leukemia = tested on: K-562 leukemia
HCC-2998 colon = tested on: HCC-2998 colon
BT-549 breast = tested on: BT-549 breast
TK-10 renal = tested on: TK-10 renal
786-0 renal = tested on: 786-0 renal
SK-MEL-28 melanoma = tested on: SK-MEL-28 melanoma
KM20L2 colon = tested on: KM20L2 colon
HS 578T breast = tested on: HS 578T breast
COLO 205 colon = tested on: COLO 205 colon
MDA-MB-231 breast = tested on: MDA-MB-231 breast
SK-MEL-2 melanoma = tested on: SK-MEL-2 melanoma
OVCAR-3 ovarian = tested on: OVCAR-3 ovarian
IGROV1 ovarian = tested on: IGROV1 ovarian
SK-OV-3 ovarian = tested on: SK-OV-3 ovarian
SF-295 CNS = tested on: SF-295 CNS
OVCAR-4 ovarian = tested on: OVCAR-4 ovarian
OVCAR-8 ovarian = tested on: OVCAR-8 ovarian
KM12 colon = tested on: KM12 colon

CN(Cc1cnc2nc(N)nc(N)c2n1)c1ccc(C(=O)N[C@@H](CCC(=O)O)C(=O)O)cc1
TGI (NCI-H23 lung): 117 µM
TGI (DMS 114 small cell lung): 191 µM
TGI (DMS 273 small cell lung): 210 µM
TGI (M14 melanoma): 240 µM and > 250 µM
TGI (XF 498 CNS): 184 µM
TGI (T-47D breast): > 250 µM
TGI (SNB-19 CNS): 211 µM and > 250 µM
TGI (SNB-78 CNS): 213 µM
TGI (NCI-H522 lung): 155 µM and > 250 µM
GI50 (A498 renal): 1050 nM
TGI (A498 renal): 116 µM
TGI (EKVX NSCLC): > 250 µM
TGI (P388/ADR leukemia): 29.4 µM
TGI (HT29 colon): 240 µM and > 250 µM
GI50 (HL-60(TB) leukemia): 25.9 nM
TGI (HL-60(TB) leukemia): 178 µM
GI50 (UO-31 renal): 45.4 nM
TGI (UO-31 renal): 148 µM
TGI (SF-268 CNS): 206 µM and > 250 µM
TGI (SN12C renal): 181 µM and > 250 µM
TGI (DLD-1 colon): > 250 µM
TGI (M19-MEL melanoma): > 250 µM
TGI (ACHN renal): > 233 µM
TGI (HOP-92 NSCLC): 229 µM and > 250 µM
TGI (RPMI-8226 leukemia): > 250 µM
TGI (UACC-62 melanoma): 41.4 µM and > 250 µM
TGI (SN12K1 renal): 191 µM
TGI (OVCAR-5 ovarian): 207 µM and > 250 µM
TGI (SR leukemia): 194 µM
TGI (MALME-3M melanoma): > 250 µM
TGI (LXFL 529 NSCLC): > 250 µM
GI50 (UACC-257 melanoma): 1890 nM
TGI (UACC-257 melanoma): > 237 µM
TGI (NCI/ADR-RES ovarian): > 250 µM
TGI (MCF7 breast): > 250 µM
TGI (DU-145 prostate): > 250 µM
GI50 (HOP-18 NSCLC): 0.714 pM
TGI (RXF 393 renal): 215 µM and > 250 µM
GI50 (MOLT-4 leukemia): 27.8 nM
TGI (MOLT-4 leukemia): 159 µM
TGI (NCI-H226 lung): 242 µM and > 250 µM
TGI (A549 NSCLC): > 250 µM
TGI (HCT-15 colon): > 250 µM
GI50 (NCI-H460 lung): 7.07 nM
TGI (NCI-H460 lung): > 245 µM
TGI (U251 CNS): > 250 µM
TGI (CAKI-1 renal): 200 µM and > 250 µM
GI50 (MDA-MB-435): 67.2 nM and 44.1 nM
TGI (MDA-MB-435): > 250 µM
GI50 (MDA-N): 28.9 nM and 12.2 nM
TGI (MDA-N): > 250 µM
TGI (SW-620 colon): 221 µM and > 250 µM
TGI (PC-3 prostate): > 250 µM
TGI (LOX IMVI melanoma): > 250 µM
TGI (SK-MEL-5 melanoma): 179 µM and > 250 µM
TGI (P388 leukemia): 13.8 µM
TGI (K-562 leukemia): 206 µM and > 250 µM
TGI (HCC-2998 colon): 191 µM and > 250 µM
TGI (BT-549 breast): > 250 µM
TGI (TK-10 renal): 230 µM and > 250 µM
TGI (786-0 renal): > 250 µM
GI50 (SK-MEL-28 melanoma): 3.27 µM
TGI (SK-MEL-28 melanoma): > 250 µM
GI50 (KM20L2 colon): 2.5 nM
TGI (KM20L2 colon): > 250 µM
TGI (HS 578T breast): > 250 µM
TGI (COLO 205 colon): 249 µM and > 250 µM
TGI (MDA-MB-231 breast): > 250 µM
TGI (SK-MEL-2 melanoma): > 250 µM
TGI (OVCAR-3 ovarian): 217 µM and > 250 µM
TGI (IGROV1 ovarian): 212 µM and > 250 µM
TGI (SK-OV-3 ovarian): > 250 µM
TGI (SF-295 CNS): 231 µM and > 250 µM
TGI (OVCAR-4 ovarian): 238 µM and > 250 µM
GI50 (OVCAR-8 ovarian): 70.3 nM and 488 nM
TGI (OVCAR-8 ovarian): > 250 µM
TGI (KM12 colon): 239 µM and > 250 µM
